From patent US9708247B2, “Modulators of the eIF2alpha pathway” (The Regents of the University of California, priority 2013, dated 2017) come the findings set out here.

The subject of one test is auditory fear memory. Description: Cannulation and auditory fear conditioning. The test is classed as in vivo, rat. To be noted: rats, infused into amygdala, vs vehicle. As for the experimental part:
Male Sprague Dawley rats (275-350 g) were used for cannulation as described in Migues et al, 2010 (46). ISRIB (0.05 mg/ml, […]) was infused bilaterally into the amygdala immediately after auditory fear conditioning training. The infusion was performed with a microinjector (28 gauge) connected to a Hamilton syringe with plastic tubing at a rate of 0.4 μl/min. To allow for the solution containing ISRIB to diffuse from the tip of the cannula into the tissue, the microinjector stayed in the cannula for one additional minute. Training protocol for auditory fear conditioning consisted of a 2-min period of context A exploration, followed by one pairing of a tone (2800 Hz, 85 dB, 30 s) with a co-terminating foot shock (0.75 mA, 1 s). Rats were returned to their home cage 1 min after the shock. Test for auditory fear memory consisted of a 2 min acclimatizing period to the context B (pre-CS), followed by tone presentation (CS) (2800 Hz, 85 dB, 30 s). Freezing time was measured and percent of freezing was calculated. At the end of the experiment, cannula placement was checked by examining 50 μm brain sections stained with formal-thionin under a light microscope.

Test [1] has as its system PERK signaling (ATF4, PERK, XBP1s). Description: Immunoblot analysis of PERK, ATF4 and XBP1s in HEK293T cells. The test is classed as cell-based, human. The protocol:
Cells were lysed in SDS-PAGE loading buffer (1% SDS, 62.5 mM Tris-HCl pH 6.8, 10% glycerol). Lysates were sonicated and equal amounts were loaded on SDS-PAGE gels (BioRad). Proteins were transferred onto nitrocellulose and probed with primary antibodies diluted in Tris-buffered saline supplemented with 0.1% Tween 20 and 5% bovine serum albumin. The following antibodies were used: CREB-2 (C-20) (1:800) (Santa Cruz Biotechnologies); PERK (D11A8) (1:1000), PERK (C33E10) (1:1000), eIF2α (9722) (1:1000), phospho-eIF2α (Ser51) (D9G8) XP (3398) (1:1000) (Cell Signaling Technology); XBP1s (C-terminus) (1:500) (BioLegend); M2 Flag (1:1000) (Sigma). An HRP-conjugated secondary antibody (Amersham) was employed to detect immune-reactive bands using enhanced chemiluminescence (SuperSignal, Thermo Scientific).
A general note: A western blot detects proteins with antibodies after separation by electrophoresis.

Another test has as its system eIF2α (S51D). Put plainly: Polysome gradient analysis in HEK293Trex cells expressing eIF2α(S51D). Particulars: 25 nM doxycycline 14 h, 200 nM ISRIB. The test is classed as cell-based, human. The protocol:
The coding sequences of wild type mouse eIF2α, phosphomimetic (S51D) mutant was amplified by PCR from a mammalian expression vector (kind gift of David Ron). BamHI and EcoRI recognition sites were engineered into the primers. In addition a Kozak consensus sequence and a N-terminal FLAG epitope tag were engineered in the forward primer. […]. Mouse Embryonic Fibroblasts (MEFs) or TREx-293 cells expressing eIF2α(S51D) were seeded on 150 mm plates and allowed to grow to 80% confluence. Cells were then induced with 25 nM doxycycline for 14 h and subsequently treated with the appropriate compounds for the indicated times. 100 μg/ml of cycloheximide was added to the cells for 1 min before lysis. Cells were washed twice with PBS supplemented with 100 μg/ml cycloheximide and subsequently lysed in 20 mM Tris pH 7.4, 200 mM NaCl, 15 mM MgCl, 1 mM DTT, 8% Glycerol, 100 μg/ml cycloheximide, 1% Triton X-100 and EDTA-free protease inhibitor tablets (Roche). Cells were scraped, collected, triturated with a 25^7/8 gauge needle, and the homogenate was centrifuged for 10 min at 10,000×g. The supernatant was loaded on a 10-50% sucrose gradient and sedimented in a SW40 rotor at 150,000×g for 2.4 h. The gradients were fractionated using a piston gradient fractionator (BioComp) and UV absorbance at 254 nm was monitored using a UV-Monitor (BioRad).

A further test deals with caspase 3/7. Description: Caspase 3/7 activation in Hela cells. The format is cell-based, human. To be noted: tunicamycin or thapsigargin plus 25 nM ISRIB. As for the experimental part:
FIGS. 5A-5D. […]
Hela cells were plated in 96 well Corning plates at 0.4×10^4 cells/well 24 hours prior to imaging. […] In order to quantify the total number of cells, Vybrant DyeCycle Green staining solution (1 μM) was added directly to the well immediately after the final Caspase-3/7 scan and incubated for 1 h prior to acquiring final images. Data was analyzed using IncuCyte analysis software.

In test [2] the test system is rabbit reticulocyte in vitro translation system. Put plainly: Rabbit reticulocyte in vitro translation assay (luciferase mRNA). The test is classed as biochemical. To be noted: rabbit reticulocyte lysate. As for the experimental part: FIG. 24. ISRIB enhances production of luciferase in a rabbit reticulocyte in vitro translation assay; luciferase mRNA was added to the lysates in the presence or absence of different concentrations of ISRIB; the amount of luciferase protein produced was quantitated by addition of One-Glo and the Relative luminescent units were normalized to no-addition control.

Consider `O=C(COc1ccc(Cl)cc1)NC1CCC(NC(=O)COc2ccc(Cl)cc2)CC1` (stereo not drawn) [ISRIB], for which the “freezing to tone (CS), short-term memory” value in the test with auditory fear memory (3 h) is “no difference”. Moreover, the “freezing to tone (CS), long-term memory” value in the test with auditory fear memory (24 h, p<0.05) is listed as “significant increase”. Further, the “XBP1 mRNA splicing and XBP1s production (IRE1 branch)” value in test [1] (ER stress plus 200 nM ISRIB) was “persisted”. In addition, the “PERK phosphorylation (mobility shift)” value in test [1] (ER-stressed HEK293T, 200 nM ISRIB) is listed as “did not inhibit the mobility shift of PERK”. The “ATF4 induction after GCN2 or HRI activation” value in test [1] (HEK293T, cysteine/methionine starvation or HRI activator 6 μM, 5 h, 200 nM ISRIB) was “blocked ATF4 induction”. Also, the “production of endogenous ATF4 upon ER stress” value in test [1] (HEK293T, tunicamycin or thapsigargin, 200 nM ISRIB, 3 h) is “blocked production of endogenous ATF4”. For the same molecule, in the test with eIF2α (S51D), the “translational attenuation by eIF2α(S51D) expression” value is “rescued translation”. Moreover, the “activity of caspases 3 and/or 7” value in the test with caspase 3/7 is “significantly induced”. For the same molecule, the “translation of exogenously added mRNA” value in test [2] is “enhances translation”.
